Patent US8633200B2, “Inhibitors of human immunodeficiency virus replication” (priority 2010, dated 2014)
Structures can show the parent of a compound that is named as a salt. Where two headings read alike, the source gives them in different places.

System: recombinant NL-Rluc virus (NL4-3 with Renilla Luciferase gene) in MT-2 cells
Test: Inhibition of HIV replication (NL-Rluc luciferase reporter virus, MT-2 cells)
Assay type: cell-based, human immunodeficiency virus (HIV)
Conditions: NL43, 120 h

SMILES | EC50 (read-out: Activity) | EC50 (read-out: EC50 μM)
Cc1ccc(-c2c(C(OC(C)(C)C)C(=O)O)c(C)nc3cc(-c4ccccc4)nn23)cc1C (stereo not shown) [Example 1, 2-tert-Butoxy-2-(7-(3,4-dimethylphenyl)-5-methyl-2-phenylpyrazolo[1,5-a]pyrimidin-6-yl)acetic acid, TFA salt] | > 1 µM | 
Cc1nc2cc(-c3ccccc3)nn2c(-c2ccc3c(c2)CCC3)c1C(OC(C)(C)C)C(=O)O (stereo not shown) [Example 2] | > 1 µM | 
Cc1nc2cc(-c3ccccc3)nn2c(-c2ccc3c(c2)CCCO3)c1C(OC(C)(C)C)C(=O)O (stereo not shown) [Example 3] | 0.1 to 1 µM | 
Cc1nc2cc(-c3ccccc3)nn2c(-c2ccc(Cl)cc2)c1C(OC(C)(C)C)C(=O)O (stereo not shown) [Example 4] | > 1 µM | 
Cc1nc2cc(-c3ccccc3)nn2c(-c2ccc3ccccc3c2)c1C(OC(C)(C)C)C(=O)O (stereo not shown) [Example 5] | > 1 µM | 
Cc1nc2cc(-c3ccccc3)nn2c(-c2cccnc2)c1C(OC(C)(C)C)C(=O)O (stereo not shown) [Example 6] | > 1 µM | 
Cc1nc2cc(-c3ccccc3)nn2c(-c2ccccc2OC(F)(F)F)c1C(OC(C)(C)C)C(=O)O (stereo not shown) [Example 7] | > 1 µM | 
COc1cccc(-c2c(C(OC(C)(C)C)C(=O)O)c(C)nc3cc(-c4ccccc4)nn23)c1 (stereo not shown) [Example 8] | > 1 µM | 
COc1ccccc1-c1c(C(OC(C)(C)C)C(=O)O)c(C)nc2cc(-c3ccccc3)nn12 (stereo not shown) [Example 9] | > 1 µM | 
Cc1nc2cc(-c3ccccc3)nn2c(-c2ccccc2)c1C(OC(C)(C)C)C(=O)O (stereo not shown) [Example 10] | > 1 µM | 
CC(=O)Nc1ccc(-c2c(C(OC(C)(C)C)C(=O)O)c(C)nc3cc(-c4ccccc4)nn23)cc1 (stereo not shown) [Example 11] | > 1 µM | 
COc1ccc(-c2c(C(OC(C)(C)C)C(=O)O)c(C)nc3cc(-c4ccccc4)nn23)cn1 (stereo not shown) [Example 12] | > 1 µM | 
Cc1nc2cc(-c3ccccc3)nn2c(-c2ccc(C#N)cc2)c1C(OC(C)(C)C)C(=O)O (stereo not shown) [Example 13] | > 1 µM | 
Cc1ccccc1-c1c(C(OC(C)(C)C)C(=O)O)c(C)nc2cc(-c3ccccc3)nn12 (stereo not shown) [Example 14] | > 1 µM | 
Cc1nc2cc(-c3ccccc3)nn2c(-c2ccc(C(F)(F)F)cc2)c1C(OC(C)(C)C)C(=O)O (stereo not shown) [Example 15] | > 1 µM | 
Cc1nc2cc(-c3ccccc3)nn2c(-c2cccc(Cl)c2)c1C(OC(C)(C)C)C(=O)O (stereo not shown) [Example 16] | > 1 µM | 
Cc1cccc(-c2c(C(OC(C)(C)C)C(=O)O)c(C)nc3cc(-c4ccccc4)nn23)c1 (stereo not shown) [Example 17] | > 1 µM | 
Cc1nc2cc(-c3ccccc3)nn2c(-c2ccc(F)cc2F)c1C(OC(C)(C)C)C(=O)O (stereo not shown) [Example 18] | > 1 µM | 
Cc1nc2cc(-c3ccccc3)nn2c(-c2ccc3c(c2)OCCO3)c1C(OC(C)(C)C)C(=O)O (stereo not shown) [Example 19] | > 1 µM | 
Cc1nc2cc(-c3ccccc3)nn2c(-c2ccc(O)cc2)c1C(OC(C)(C)C)C(=O)O (stereo not shown) [Example 20] | > 1 µM | 
Cc1nc2cc(-c3ccccc3)nn2c(-c2ccncc2)c1C(OC(C)(C)C)C(=O)O (stereo not shown) [Example 21] | > 1 µM | 

SMILES | EC50 (read-out: Activity) | EC50 (read-out: EC50 μM)
COc1ccc(-c2c(C(OC(C)(C)C)C(=O)O)c(C)nc3cc(-c4ccccc4)nn23)cc1OC (stereo not shown) [Example 22] | > 1 µM | 
Cc1nc2cc(-c3ccccc3)nn2c(-c2ccc(F)cc2)c1C(OC(C)(C)C)C(=O)O (stereo not shown) [Example 23] | > 1 µM | 
Cc1nc2cc(-c3ccccc3)nn2c(-c2ccc(Oc3ccccc3)cc2)c1C(OC(C)(C)C)C(=O)O (stereo not shown) [Example 24] | > 1 µM | 
Cc1nc2cc(-c3ccccc3)nn2c(-c2ccc(OC(F)(F)F)cc2)c1C(OC(C)(C)C)C(=O)O (stereo not shown) [Example 25] | > 1 µM | 
Cc1nc2cc(-c3ccccc3)nn2c(-c2ccc3c(c2)CCO3)c1C(OC(C)(C)C)C(=O)O (stereo not shown) [Example 26] | 0.1 to 1 µM | 
Cc1nc2cc(-c3ccccc3)nn2c(-c2ccc(Cl)cc2F)c1C(OC(C)(C)C)C(=O)O (stereo not shown) [Example 27] | > 1 µM | 
Cc1nc2cc(-c3ccccc3)nn2c(-c2ccc3occc3c2)c1C(OC(C)(C)C)C(=O)O (stereo not shown) [Example 28] | > 1 µM | 
COc1ccc(-c2c(C(OC(C)(C)C)C(=O)O)c(C)nc3cc(-c4ccccc4)nn23)cc1C(F)(F)F (stereo not shown) [Example 29] | > 1 µM | 
Cc1nc2cc(-c3ccccc3)nn2c(-c2ccc3c(c2)OCO3)c1C(OC(C)(C)C)C(=O)O (stereo not shown) [Example 30] | > 1 µM | 
Cc1nc2cc(-c3ccccc3)nn2c(-c2ccc(OCc3ccccc3)cc2)c1C(OC(C)(C)C)C(=O)O (stereo not shown) [Example 31] | > 1 µM | 
COc1ccc(-c2c(C(OC(C)(C)C)C(=O)O)c(C)nc3cc(-c4ccccc4)nn23)cc1 (stereo not shown) [Example 32] | > 1 µM | 
COc1ccc(-c2c(C(OC(C)(C)C)C(=O)O)c(C)nc3cc(-c4ccccc4)nn23)cc1F (stereo not shown) [Example 33] | > 1 µM | 
Cc1nc2cc(-c3ccccc3)nn2c(-c2ccc(OC(C)C)cc2)c1C(OC(C)(C)C)C(=O)O (stereo not shown) [Example 34] | > 1 µM | 
COc1cc(F)c(-c2c(C(OC(C)(C)C)C(=O)O)c(C)nc3cc(-c4ccccc4)nn23)cc1F (stereo not shown) [Example 35] | > 1 µM | 
Cc1nc2cc(-c3ccccc3)nn2c(-c2ccc3c(ccn3C)c2)c1C(OC(C)(C)C)C(=O)O (stereo not shown) [Example 36] | 0.1 to 1 µM | 
Cc1nc2cc(-c3ccccc3)nn2c(-c2ccc3c4c(ccnc24)CCO3)c1C(OC(C)(C)C)C(=O)O (stereo not shown) [Example 37] | > 1 µM | 
Cc1nc2cc(-c3ccccc3)nn2c(-c2cc(F)c3c(c2C)CCCO3)c1C(OC(C)(C)C)C(=O)O (stereo not shown) [Example 38] | 0.1 to 1 µM | 
Cc1nc2cc(-c3ccccc3)nn2c(-c2cc(F)c3c(c2C)CCCO3)c1[C@H](OC(C)(C)C)C(=O)O [Example 39, (2S)-2-tert-butoxy-2-(7-(8-fluoro-5-methylchroman-6-yl)-5-methyl-2-phenylpyrazolo[1,5-a]pyrimidin-6-yl)acetic acid] | < 0.1 µM | 
Cc1nc2cc(-c3ccccc3)nn2c(-c2cc(F)c3c(c2C)CCCO3)c1[C@@H](OC(C)(C)C)C(=O)O [Example 40, (2R)-2-tert-butoxy-2-(7-(8-fluoro-5-methylchroman-6-yl)-5-methyl-2-phenylpyrazolo[1,5-a]pyrimidin-6-yl)acetic acid] | > 1 µM | 
Cc1ccc(-c2c(C(OC(C)(C)C)C(=O)O)c(C)nc3cc(-c4ccccc4)nn23)cc1 (stereo not shown) [Example 41, 2-tert-Butoxy-2-(5-methyl-2-phenyl-7-p-tolylpyrazolo[1,5-a]pyrimidin-6-yl)acetic acid, TFA salt] | 0.1 to 1 µM | 0.6 µM
Cc1ccc(-c2c(C(OC(C)(C)C)C(=O)O)c(C)nc3ccnn23)cc1 (stereo not shown) [Example 42, 2-tert-Butoxy-2-(5-methyl-7-p-tolylpyrazolo[1,5-a]pyrimidin-6-yl)acetic acid, TFA salt] | > 1 µM | 4.5 µM

SMILES | EC50 (read-out: Activity) | EC50 (read-out: EC50 μM)
Cc1nc2cc(-c3ccccc3)nn2c(C)c1C(OC(C)(C)C)C(=O)O (stereo not shown) [Example 43, 2-tert-Butoxy-2-(5,7-dimethyl-2-phenylpyrazolo[1,5-a]pyrimidin-6-yl)acetic acid, TFA salt] | > 1 µM | 40 µM
Cc1nc2c(-c3ccccc3)cnn2c(-c2cc(F)c3c(c2C)CCCO3)c1C(OC(C)(C)C)C(=O)O (stereo not shown) [Example 44, 2-tert-Butoxy-2-(7-(8-fluoro-5-methylchroman-6-yl)-5-methyl-3-phenylpyrazolo[1,5-a]pyrimidin-6-yl)acetic acid, TFA salt] | > 1 µM | 3 µM
Cc1nc2c(-c3ccccc3)cnn2c(-c2ccc3c(c2)CCCO3)c1C(OC(C)(C)C)C(=O)O (stereo not shown) [Example 45, 2-tert-Butoxy-2-(7-(chroman-6-yl)-5-methyl-3-phenylpyrazolo[1,5-a]pyrimidin-6-yl)acetic acid, TFA salt] | 0.1 to 1 µM | 0.24 µM
Cc1ccc(-c2cc3nc(C)c(C(OC(C)(C)C)C(=O)O)c(-c4cc(F)c5c(c4C)CCCO5)n3n2)cc1 (stereo not shown) [Example 46, 2-tert-Butoxy-2-(7-(8-fluoro-5-methylchroman-6-yl)-5-methyl-2-p-tolylpyrazolo[1,5-a]pyrimidin-6-yl)acetic acid, TFA salt] | < 0.1 µM | 0.09 µM
Cc1ccc(-c2cc3nc(C)c(C(OC(C)(C)C)C(=O)O)c(-c4ccc5c(c4)CCCO5)n3n2)cc1 (stereo not shown) [Example 47] | < 0.1 µM | 0.08 µM
Cc1nc2cc(-c3ccccc3)nn2c(-c2cc3ccccc3n2C)c1C(OC(C)(C)C)C(=O)O (stereo not shown) [Example 48] | > 1 µM | 
CCC(C)c1ccc(-c2c(C(OC(C)(C)C)C(=O)O)c(C)nc3cc(-c4ccccc4)nn23)cc1 (stereo not shown) [Example 49] | > 1 µM | 
Cc1nc2cc(-c3ccccc3)nn2c(-c2ccc3ncccc3c2)c1C(OC(C)(C)C)C(=O)O (stereo not shown) [Example 50] | > 1 µM | 2.4 µM
Cc1nc2cc(-c3ccccc3)nn2c(-c2ccc3cc[nH]c3c2)c1C(OC(C)(C)C)C(=O)O (stereo not shown) [Example 51] | > 1 µM | 
COc1ccc(-c2c(C(OC(C)(C)C)C(=O)O)c(C)nc3cc(-c4ccccc4)nn23)c(Cl)c1 (stereo not shown) [Example 52] | > 1 µM | 
Cc1ccc(-c2c(C(OC(C)(C)C)C(=O)O)c(C)nc3cc(-c4ccccc4)nn23)c(Cl)c1 (stereo not shown) [Example 53] | 0.1 to 1 µM | 
Cc1ccc(-c2c(C(OC(C)(C)C)C(=O)O)c(C)nc3cc(-c4ccccc4)nn23)c(F)c1 (stereo not shown) [Example 54] | 0.1 to 1 µM | 
Cc1nc2cc(-c3ccccc3)nn2c(-c2ccccc2Cl)c1C(OC(C)(C)C)C(=O)O (stereo not shown) [Example 55] | > 1 µM | 
CCc1ccc(-c2c(C(OC(C)(C)C)C(=O)O)c(C)nc3cc(-c4ccccc4)nn23)cc1 (stereo not shown) [Example 56] | > 1 µM | 
Cc1nc2cc(-c3ccccc3)nn2c(-c2ccc(C(C)C)cc2)c1C(OC(C)(C)C)C(=O)O (stereo not shown) [Example 57] | > 1 µM | 1.7 µM
CSc1ccc(-c2c(C(OC(C)(C)C)C(=O)O)c(C)nc3cc(-c4ccccc4)nn23)cc1 (stereo not shown) [Example 58] | > 1 µM | 3.1 µM
Cc1cc(-c2c(C(OC(C)(C)C)C(=O)O)c(C)nc3cc(-c4ccccc4)nn23)ccc1F (stereo not shown) [Example 59] | > 1 µM | 
Cc1cc(F)ccc1-c1c(C(OC(C)(C)C)C(=O)O)c(C)nc2cc(-c3ccccc3)nn12 (stereo not shown) [Example 60] | > 1 µM | 
Cc1ccc(-c2c(C(OC(C)(C)C)C(=O)O)c(C)nc3cc(-c4ccccc4)nn23)cc1F (stereo not shown) [Example 61] | > 1 µM | 
Cc1ccc(F)c(-c2c(C(OC(C)(C)C)C(=O)O)c(C)nc3cc(-c4ccccc4)nn23)c1 (stereo not shown) [Example 62] | > 1 µM | 5 µM
